Source: patent US9248128B2, “Method for enhancing remyelination using GLI1 inhibitors” (NEW YORK UNIVERSITY, priority 2012, dated 2016)

Experiments:
Gli1^het;RCE mice = experiment: GANT61 infusion into lateral ventricle during cuprizone demyelination/remyelination; GFP-labeled cells in Corpus Callosum by immunofluorescence; type: in vivo, mouse; settings: n=3
Protocol: 10 week old mice were administered 5 mg Tamoxifen (Sigma) in corn oil on alternate days for total of 4 intraperitoneal (i.p.) injections. Gli1^het;RCE, mice, maintained on the Swiss-Webster background, were fed 0.4% cuprizone (Matsushima and Morell, 2001, Brain Pathol., 11:107-116; Elsworth & Howell, Research in Veterinary Science, 14:385-387, 1973). […] For the LPC model, 2 μl 1% LPC (Calbiochem) were stereotaxically injected into the CC at 1.5 mm anterior, 1.2 mm lateral and 2.2 mm ventral to bregma.
GANT61 (Enzo Life Sciences product #ALX-270-482) (5.6 mg/Kg per day; compound in 50% DMSO and 15% Ethanol in PEG400) or vehicle (50% DMSO+15% Ethanol in PEG400) were delivered via mini-osmotic pump (model 2004, Durect) at a rate of 0.25 μl/h for 4 weeks into the lateral ventricle of Gli^het;RCE mice at 0.5 mm Anterior, 0.75 mm lateral and 2.5 mm ventral to the bregma.
For Black-Gold (Millipore) staining, mice were perfused with 4% PFA and 20 μm coronal sections were stained according to manufacturer's protocol. For all other analysis, mice were perfused with Prefer (Anatech) and 20 μm coronal sections were stained with X-gal (Ahn & Joyner, Nature, 437:894-897, 2005) or processed for immunofluorescence with rabbit or chicken anti-GFP (1:1,000, Invitrogen) and one of the following antibodies: rat anti-PDGFRα (1:200, BD Biosciences); rabbit anti-NG2 (1:200, Millipore) and β4 spectrin (1:4,000 from M. Rasband); mouse anti-CC1 (1:400, Calbiochem), anti-GFAP (1:400, Sigma), anti-MOG (1:50, Sigma) and guinea pig anti-Caspr (1:3,000 from M. Bhat). Secondary antibodies were goat anti-species conjugated to Alexafluor-488, 594 or -680 (1:1,000, Molecular Probes). Nuclei were counterstained with Hoechst 33258 (1:5,000, Invitrogen). Fluorescent images were obtained as Z-stacks of 1 μm optical sections using a confocal laser-scanning microscope (LSM 510, Zeiss) and processed using Adobe Photoshop. At least 10 sections/mouse were analyzed and data from at least 3 mice were combined to determine the average and standard deviation. Student's t-test was performed to calculate P values.
To assess whether a strategy of inhibiting Gli1 could potentially be used therapeutically, GANT61, a small molecule inhibitor of Gli1 (Lauth et al., Proc. Natl. Acad. Sci. U.S.A., 104:8455-8460, 2007), was infused into the lateral ventricle of Gli1^het;RCE mice via a mini-osmotic pump. The infusion was started after 4 weeks of cuprizone diet and was continued for an additional 2 weeks on cuprizone and 2 weeks off cuprizone for a total of 4 weeks. Mice were then sacrificed and analyzed (FIG. 4a).

Hh pathway = settings: Peukert and Miller-Moslin, ChemMedChem 2010; cited from earlier work

Row | Compound | numbers of labeled cells in the CC (Gli1^het;RCE mice; 5.6 mg/Kg per day via mini-osmotic pump for 4 weeks (2 weeks on, 2 weeks off cuprizone), mean±SD, vehicle 6.4±5) [per section] | proportion of differentiated oligodendrocytes among GFP-labeled cells (Gli1^het;RCE mice; 5.6 mg/Kg per day via mini-osmotic pump for 4 weeks, mean±SD, vehicle 21.4±18.7%) [%] | increase in GFP-labeled cells in the CC (Gli1^het;RCE mice; FIG. 4C, versus control infusion) [fold] | percentage of mature oligodendrocytes (Gli1^het;RCE mice; FIG. 4D, versus control infusion, Student's T test) | selectivity for the Hh pathway over TNF/NFkN signaling, glucocorticoid receptor gene transactivation, and the Ras-Raf-Mek-Mapk cascade (Hh pathway)
1 | CN(C)c1ccccc1CN1CCCN(Cc2ccccc2N(C)C)C1c1ccncc1 [GANT61] | 43.8±22.1 | 65.4±7.5 | ~7 | significant increase | display selectivity for the Hh pathway
2 | c1cc(-c2sc(-c3ccncc3)c(-c3ccncc3)c2-c2ccncc2)ccn1 [GANT58] | – | – | – | – | display selectivity for the Hh pathway
